Source: patent publication US20220088195A1, “Prevention or mitigation of T-cell bispecific antibody-related adverse effects” (Hoffmann-La Roche Inc., priority 2020, published 2022)
“Also recorded” adds a separate entry of the source.

Columns and labels:
SUDLH-8 tumor cells = assay: Killing assay, PBMCs + CTV labelled SUDLH-8 cells + CD19-TCB, flow cytometry 24 hrs; assay type: cell-based, human; conditions: 100 nM dasatinib, monohydrate
Experimental: FIG. 26. In vitro killing assay set-up. PBMCs were co-cultured with CellTrace™ Violet (CTV)-labelled SUDLH-8 tumor cells (E:T=10:1) and escalating concentrations of CD19-TCB in the presence and absence of 100 nM dasatinib.
FIG. 27. […] The killing of SUDLH-8 tumor cells was measured by flow cytometry using a Live Dead Near InfraRed (NIR) dye allowing for exclusion of dead cells (24 hrs) in the assay described in FIG. 26. Mean of n=3 donors+SD. One way ANOVA, Friedman test, p-value: 0.1234 (ns), 0.0332 (*), 0.0021 (**), 0.0001 (***), <0.0001 (****).
(§1) The killing of CTV labelled SUDLH-8 cells was measured by flow cytometry using a Live/Dead Near Infra Red (NIR) dye. […] The expression of CD69 and CD25 were measured on CD4+ (FIG. 28) and CD8+(FIG. 29) T cells by flow cytometry as a readout for T cell activation. […] Lastly, the cytokine levels were analyzed in the supernatants of the assay by Luminex to evaluate the effect of dasatinib on CD19-TCB-induced cytokine release (FIGS. 30 and 31).

[1] = blood of mice; cited from earlier work
[2] = tested on: IFN-γ, IL-2 and TNF-α release; assay: Cytokine levels in supernatants of the reversibility assay (Luminex); assay type: cell-based, human
Experimental: FIG. 18. […] Cytokines ((A) IFN-γ, (B) IL-2, (C) TNF-α) were measured with a multiplex cytokine kit (Luminex technology). 1 donor.
FIG. 20. Cytokine levels in the supernatants of the assay after first stimulation in the absence of 25 nM dasatinib and after second stimulation in the presence of 25 nM dasatinib, in the assay of FIG. 16 (“ON/OFF”). Cytokines ((A) IFN-γ, (B) IL-2, (C) TNF-α) were measured with a multiplex cytokine kit (Luminex technology). 1 donor.
FIG. 22. Cytokine release. Supernatants were collected after first and second stimulation in the assay of FIG. 16 and cytokines ((A) TNF-α, (B) IFN-γ, (C) IL-2) measured using a multiplex cytokine kit (Luminex).
We then verified if dasatinib's effect is reversible upon its removal. Therefore we set-up a killing assay with two and three stimulations in the presence and absence of dasatinib and followed the killing kinetics using an Incucyte® system (FIG. 16). After each stimulation, effector cells were washed and re-stimulated on fresh MKN45 NLR target cells with 1 nM CEA TCB in the presence and absence of dasatinib allowing to mimic OFF/ON switch and ON/OFF/ON switch.
Lastly, we evaluated if the effect of dasatinib was reversible on activated T cells. Consequently, we supplemented the media with 25 nM dasatinib upon the second stimulation with 1 nM CEA-TCB to prevent killing from activated T cells and then removed the dasatinib upon third stimulation with 1 nM CEA-TCB to verify if killing would be restored.
We were curious to see if low doses of dasatinib could prevent cytokine release while minimally affecting TCB-efficacy upon first stimulation. In killing assays as described in FIG. 16, the cytokine levels upon first treatment with 1 nM CEA-TCB in the presence of 6.25 nM and 12.5 nM dasatinib and upon second treatment with 1 nM CEA-TCB in the absence of dasatinib were measured in the supernatants.

[3] = tested on: A375 NucLight Red (NLR) target cells; assay: Incucyte real time killing assay, PBMCs + RMF peptide-pulsed A375 NLR target cells + HLA-A2 WT1-TCB with escalating dasatinib; assay type: cell-based, human
Experimental: FIG. 1. Real time killing of red fluorescent A375 cells loaded with RMF peptides by 10 nM HLA-A2 WT-1-TCB (A) and of red fluorescent MKN45 cells by 1 nM CEA-TCB (B) in the presence of different dasatinib concentrations ranging from 100 nM to 0 nM. (A) A375 NucLight Red (NLR) target cells were pulsed with RMF peptides (2 hours before killing assay) and co-cultured with HLA-A2 WT1-TCB, dasatinib (dasa) and PBMCs, effector to target ratio (E:T)=10:1 (E:T=50 000 PBMCs:5000 target cells). Killing was followed by Incucyte® (1 scan every 3 hours, zoom 10×, phase and red 400 ms acquisition time). % Killing was measured by normalizing total red area with values at t=0 hour and target cells+PBMCs+dasatinib (without TCB) control wells for each time point. Means of technical replicates+/−SEM for 1 donor. (B) MKN45 NLR target cells were co-cultured with CEA TCB, dasatinib and PBMCs, E:T=10:1 (E:T=50 000 PBMCs:5000 target cells). Killing was followed by Incucyte (1 scan every 3 hours, zoom 10×, phase and red 400 ms acquisition time). % Killing was measured by normalizing total red area with values at t=0 hour and target cells+PBMCs+dasatinib control wells for each time point. Means of technical replicates+/−SEM for 1 donor.
To assess the inhibitory effect of dasatinib on TCB-mediated target-cell killing, we conducted killing assays using peripheral blood mononuclear cells (PBMCs), NucLight Red (NLR) target-cells and respective TCB in media supplemented with escalating concentrations of dasatinib. The Incucyte® system (Essen Bioscience) was used to capture the loss of red fluorescent protein signal over time as a readout of target-cell killing.

[4] = tested on: IFN-γ, IL-2 and TNF-α release; assay: Cytokine release in supernatants of the CEA-TCB killing assay (Luminex, 96 hours); assay type: cell-based, human; conditions: dasatinib above 12.5 nM, 1 nM CEA-TCB
Experimental: Cytokine release. Supernatant were collected at the endpoint (96 hours) of the assay in FIG. 1 and cytokines ((A) IFNγ, (B) IL-2, (C) TNF-α) measured by multiplex cytokine analysis (Luminex). 1 nM CEA-TCB, 1 donor.

[5] = tested on: IL-2, IFN-γ, TNF-α, IL-6, GM-CSF and IL-8 release; assay: CD19-TCB-induced cytokine release in the SUDLH-8 assay (Luminex); assay type: cell-based, human; conditions: 100 nM dasatinib, monohydrate
Experimental: The levels of IL-2 (A), IFN-γ (B), TNF-α (C), IL-6 (D), GM-CSF (E) and IL-8 (F) were measured by Luminex in the supernatant of the assay described in FIG. 26.
FIG. 31. […] The levels of IFN-γ (A), TNF-α (B), IL-2 (C), IL-6 (D), GM-CSF (E) and IL-8 (F) were measured by Luminex in the supernatant of the assay described in FIG. 26.
as §1

Cc1nc(Nc2ncc(C(=O)Nc3c(C)cccc3Cl)s2)cc(N2CCN(CCO)CC2)n1 [dasatinib, N-(2-chloro-6-methylphenyl)-2-[[6-[4-(2-hydroxyethyl)-1-piperazinyl]-2-methyl-4-pyrimidinyl]amino]-5-thiazole carboxamide monohydrate]
killing of SUDLH-8 tumor cells by CD19-TCB (SUDLH-8 tumor cells): prevented killing | half-life [1]: around 6 hrs | release of IFN-γ, IL-2 and TNF-α during first stimulation ([2]; 6.25 nM and 12.5 nM dasatinib, 1 nM CEA-TCB): lowered the release | release of IFN-γ, IL-2 and TNF-α (ON/OFF) ([2]; 25 nM dasatinib upon second stimulation, 1 nM CEA-TCB): prevented the release | T-cell derived cytokine release (IFN-γ, IL-2, TNF-α) after first stimulation ([2]; 25 nM dasatinib, 1 nM CEA-TCB): full inhibition | levels of TNF-α, IL-2 and IFN-γ during second stimulation ([2]; dasatinib (6.25 nM, 12.5 nM) removed): remained low | release of IFN-γ, IL-2 and TNF-α after removal of dasatinib and restimulation ([2]; removal of 25 nM dasatinib, restimulation with 1 nM CEA-TCB): T cell functionality was restored upon dasatinib removal | inhibition at 0.0125 µM ([3]; Homo sapiens, A-375, 12.5 nM dasatinib, 10 nM HLA-A2 WT-1-TCB, read-out: inhibition of target-cell killing): 78.2% | inhibition at 0.05 µM ([3]; Homo sapiens, A-375, 50 nM (24.4 ng/mL) dasatinib, 10 nM HLA-A2 WT1-TCB, read-out: inhibition of target-cell killing): 89% | inhibition at 0.1 µM ([3]; Homo sapiens, A-375, 100 nM (48.8 ng/mL) dasatinib, 10 nM HLA-A2 WT1-TCB, read-out: inhibition of target-cell killing): 86.5% | inhibition of killing ([3]; dasatinib concentrations below 12.5 nM, 10 nM HLA-A2 WT-1-TCB): only partially inhibited killing | release of IFN-γ, IL-2 and TNF-α [4]: prevented the release | release of IL-2, IFN-γ, TNF-α, IL-6, GM-CSF and IL-8 [5]: prevents CD19-TCB-induced cytokine release; also recorded: prevented the release
